Measured values reported in PubChem BioAssay (NCI).
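In this assay, cells in 96-well plates receive the compound at five concentrations for 48 hours. Endpoints are linearly interpolated between the surrounding concentrations. The concentration for 50% growth inhibition is given as GI50. The concentration for full growth arrest is given as TGI.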

Experiments:
Assay in all cases: growth of human tumour cells (NCI), 48 h
[1] = tested on: 786-0 renal
[2] = tested on: A498 renal
[3] = tested on: A549 NSCLC
[4] = tested on: ACHN renal
[5] = tested on: BT-549 breast
[6] = tested on: CAKI-1 renal
[7] = tested on: CCRF-CEM leukemia
[8] = tested on: COLO 205 colon
[9] = tested on: DU-145 prostate
[10] = tested on: EKVX NSCLC
[11] = tested on: HCC-2998 colon
[12] = tested on: HCT-116 colon
[13] = tested on: HCT-15 colon
[14] = tested on: HOP-62 NSCLC
[15] = tested on: HOP-92 NSCLC
[16] = tested on: HS 578T breast
[17] = tested on: HT29 colon
[18] = tested on: IGROV1 ovarian
[19] = tested on: K-562 leukemia
[20] = tested on: KM12 colon
[21] = tested on: LOX IMVI melanoma
[22] = tested on: M14 melanoma
[23] = tested on: MCF7 breast
[24] = tested on: MDA-MB-231 breast
[25] = tested on: MDA-MB-435
[26] = tested on: MOLT-4 leukemia
[27] = tested on: NCI-H226 lung
[28] = tested on: NCI-H23 lung
[29] = tested on: NCI-H460 lung
[30] = tested on: NCI-H522 lung
[31] = tested on: NCI/ADR-RES ovarian
[32] = tested on: OVCAR-3 ovarian
[33] = tested on: OVCAR-4 ovarian
[34] = tested on: OVCAR-5 ovarian
[35] = tested on: OVCAR-8 ovarian
[36] = tested on: PC-3 prostate
[37] = tested on: RPMI-8226 leukemia
[38] = tested on: RXF 393 renal
[39] = tested on: SF-268 CNS
[40] = tested on: SF-295 CNS
[41] = tested on: SF-539 CNS
[42] = tested on: SK-MEL-2 melanoma
[43] = tested on: SK-MEL-28 melanoma
[44] = tested on: SK-MEL-5 melanoma
[45] = tested on: SK-OV-3 ovarian
[46] = tested on: SN12C renal
[47] = tested on: SNB-19 CNS
[48] = tested on: SNB-75 CNS
[49] = tested on: SW-620 colon
[50] = tested on: TK-10 renal
[51] = tested on: U251 CNS
[52] = tested on: UACC-257 melanoma
[53] = tested on: UACC-62 melanoma
[54] = tested on: UO-31 renal

ClCc1ccccc1Cn1cnc2ncnc(Cl)c21 gave a GI50 [1] of 4.02 µM, a TGI [1] of 12.8 µM and a GI50 [2] of 18.6 µM. For the same molecule, the TGI [2] was 32.8 µM, the GI50 [3] was 4.44 µM and the TGI [3] was 23.9 µM. The GI50 [4] was 2 µM, the TGI [4] was 4.27 µM and the GI50 [5] was 2.45 µM. The TGI [5] was 6.09 µM, the GI50 [6] was 2.36 µM and the TGI [6] was 4.21 µM. For the same molecule, the GI50 [7] was 1.45 µM, the TGI [7] was 3.53 µM and the GI50 [8] was 4.33 µM. The TGI [8] was > 100 µM, the GI50 [9] was 2.93 µM and the TGI [9] was 10.1 µM. It also gave a GI50 [10] of 5.33 µM, a TGI [10] of 17.6 µM and a GI50 [11] of 2.26 µM. It also gave a TGI [11] of 4.22 µM, a GI50 [12] of 1.5 µM and a TGI [12] of 4.11 µM. For the same molecule, the GI50 [13] was 1.36 µM, the TGI [13] was 2.91 µM and the GI50 [14] was 11.1 µM. For the same molecule, the TGI [14] was 29 µM, the GI50 [15] was 4.38 µM and the TGI [15] was 12.8 µM. For the same molecule, the GI50 [16] was 2.29 µM, the TGI [16] was 5.96 µM and the GI50 [17] was 3.93 µM. The TGI [17] was > 100 µM, the GI50 [18] was 4.28 µM and the TGI [18] was 22.7 µM. The GI50 [19] was 2.23 µM, the TGI [19] was 5.86 µM and the GI50 [20] was 3.6 µM. It also gave a TGI [20] of 11.3 µM, a GI50 [21] of 1.34 µM and a TGI [21] of 3.07 µM. It also gave a GI50 [22] of 1.92 µM, a TGI [22] of 5.17 µM and a GI50 [23] of 3.64 µM. The TGI [23] was > 100 µM, the GI50 [24] was 2.78 µM and the TGI [24] was 6.97 µM. For the same molecule, the GI50 [25] was 1.95 µM, the TGI [25] was 3.84 µM and the GI50 [26] was 1.65 µM. The TGI [26] was 4.24 µM, the GI50 [27] was 3.35 µM and the TGI [27] was 7.89 µM. It also gave a GI50 [28] of 4.97 µM, a TGI [28] of 17.6 µM and a GI50 [29] of 13.5 µM. The TGI [29] was 60.9 µM, the GI50 [30] was 2.83 µM and the TGI [30] was 7.64 µM. For the same molecule, the GI50 [31] was 2.1 µM, the TGI [31] was 4.47 µM and the GI50 [32] was 2.06 µM. The TGI [32] was 4.16 µM, the GI50 [33] was 4.94 µM and the TGI [33] was 20.5 µM. For the same molecule, the GI50 [34] was 2.84 µM, the TGI [34] was 7.3 µM and the GI50 [35] was 2.74 µM. The TGI [35] was 8.74 µM, the GI50 [36] was 4.51 µM and the TGI [36] was 19.2 µM. The GI50 [37] was 2.09 µM, the TGI [37] was 5.45 µM and the GI50 [38] was 1.65 µM. The TGI [38] was 6.5 µM, the GI50 [39] was 4.76 µM and the TGI [39] was 24.4 µM. For the same molecule, the GI50 [40] was 7.93 µM, the TGI [40] was 20.5 µM and the GI50 [41] was 2.35 µM. It also gave a TGI [41] of 4.98 µM, a GI50 [42] of 4.2 µM and a TGI [42] of 19.7 µM. The GI50 [43] was 4.47 µM, the TGI [43] was 18.7 µM and the GI50 [44] was 1.37 µM. For the same molecule, the TGI [44] was 4.12 µM, the GI50 [45] was 7.57 µM and the TGI [45] was 26.8 µM. The GI50 [46] was 2.96 µM, the TGI [46] was 8.5 µM and the GI50 [47] was 7.3 µM. For the same molecule, the TGI [47] was > 100 µM, the GI50 [48] was 11.3 µM and the TGI [48] was 26.6 µM. It also gave a GI50 [49] of 2.24 µM, a TGI [49] of 4.72 µM and a GI50 [50] of 3.5 µM. For the same molecule, the TGI [50] was 9.57 µM, the GI50 [51] was 1.92 µM and the TGI [51] was 4.4 µM. It also gave a GI50 [52] of 5.88 µM, a TGI [52] of 22.1 µM and a GI50 [53] of 1.88 µM. It also gave a TGI [53] of 5.12 µM, a GI50 [54] of 3.22 µM and a TGI [54] of 10.7 µM.
